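Method: 48-hour compound exposure of cells in 96-well plates, five concentrations, linear interpolation of endpoints. TGI: concentration producing complete growth inhibition.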
Tests used:
Experiment in all cases: NCI tumour cell line growth inhibition, 48 h
U251 CNS = test system: U251 CNS
SK-MEL-5 melanoma = test system: SK-MEL-5 melanoma
RPMI-8226 leukemia = test system: RPMI-8226 leukemia
BT-549 breast = test system: BT-549 breast
HOP-92 NSCLC = test system: HOP-92 NSCLC
MCF7 breast = test system: MCF7 breast
OVCAR-4 ovarian = test system: OVCAR-4 ovarian
SNB-19 CNS = test system: SNB-19 CNS
EKVX NSCLC = test system: EKVX NSCLC
KM12 colon = test system: KM12 colon
A549 NSCLC = test system: A549 NSCLC
SK-OV-3 ovarian = test system: SK-OV-3 ovarian

SMILES | TGI (U251 CNS) [µM] | TGI (SK-MEL-5 melanoma) [µM] | TGI (RPMI-8226 leukemia) [µM] | TGI (BT-549 breast) [µM] | TGI (HOP-92 NSCLC) [µM] | TGI (MCF7 breast) [µM] | TGI (OVCAR-4 ovarian) [µM] | TGI (SNB-19 CNS) [µM] | TGI (EKVX NSCLC) [µM] | TGI (KM12 colon) [µM] | TGI (A549 NSCLC) [µM] | TGI (SK-OV-3 ovarian) [µM]
CN(C)CCNC(=O)c1ccc(NCCCN(C)CCCNc2ccc(C(=O)NCCN(C)C)c3[nH]c4ccccc4c(=O)c23)c2c(=O)c3ccccc3[nH]c12 | 0.247 | 1.5 | 0.419 | 1.63 | 3.82 | 0.44 | 0.247 | 0.419 | 0.674 | 0.627 | 0.313 | 0.427
NC(=O)N/N=C(/CC1C(=O)Oc2ccccc21)c1ccccc1O (centres undefined) | > 100 | > 100 | 34.9 | > 100 | > 100 | > 100 | > 100 | > 100 | > 100 | > 100 | > 100 | > 100
CSc1ccc(-c2cc(-c3nc4ccccc4[nH]3)no2)cc1 |  | 33.4 | 98 | 55.5 | > 100 | 33.8 | 19.3 | > 100 | > 100 | 68.5 | 90.8 | > 100
COc1cc2c(cc1OC)C(=O)N(c1ccc(O)cc1)C2=O | > 100 | > 100 | > 100 | > 100 | > 100 | > 100 | > 100 | > 100 | > 100 |  | > 100 | > 100
O=C1/C(=C\c2cccc(Oc3ccccc3)c2)SC(c2ccccc2)N1c1ccccc1 (centres undefined) | > 100 | > 100 | 50.3 | > 100 | > 100 | > 100 | > 100 | > 100 | > 100 | > 100 | > 100 | > 100
CCCC(CCC(N)=O)(CCC(N)=O)[N+](=O)[O-] | > 100 | > 100 | > 100 | > 100 | > 100 | > 100 |  | > 100 | > 100 | > 100 | > 100 | > 100
Cc1cc2/c(=C\c3ccc(N(C)C)cc3)c3ccccc3n2[n+]1C | 1.78 | 1.58 | 0.738 | 5.99 | 3.52 | 6.55 | 10.3 | 4.52 | 8.79 | 5.54 |  | 14.3
C=CCC1CC(n2cc(C)c(=O)[nH]c2=O)OC1CO[Si](C)(C)C(C)(C)C (centres undefined) | 29.6 | 29.9 | 47.5 | 29.6 | 31 | 29.1 | 28.5 | 30.2 | 19.8 | 35 | 26.8 | 29.2
O=C(O)Cc1ccc(Nc2nc3cc(C(F)(F)F)ccc3nc2C(=O)O)cc1 | > 100 | > 100 |  | > 100 | > 100 | > 100 | > 100 | > 100 | > 100 | > 100 | > 100 | > 100
CC(=O)OC12C3C4C1C1C2C3C41OC(C)=O (centres undefined) | > 100 | > 100 | > 100 | > 100 | > 100 | > 100 | > 100 |  | > 100 | > 100 | > 100 | > 100
